Reference: PubChem BioAssay AID180 (DTP/NCI, 2004)
Where “and” joins values, the source holds several entries; their conditions need not be identical. Equal values may be shown once.

Tested on: BDF1 mice, Adenocarcinoma 755 s.c., tumor weight T/C
Assay: NCI In Vivo Anticancer Drug Screen. Data for tumor model Adenocarcinoma 755 (subcutaneous) in B6D2F1 (BDF1) mice
Conditions: endpoint: mean tumor weight, schedule: Q01DX011 (ip), higher = larger tumour
Procedure, shortened: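 Tumor-bearing mice receive test compound while controls get vehicle alone. Antitumor effect is scored from survival or tumor dimensions as a T/C quotient.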

[1] = dose: 1.0 mg/kg/injection, vehicle: methylcellulose (MC)

## CN(C)CCCN1c2ccccc2Sc2ccc(Cl)cc21
dose: 11.25 mg/kg/injection, vehicle: methylcellulose (MC)
  T/C: 44 % of control
dose: 11.25 mg/kg/injection, vehicle: saline
  T/C: 59 % of control
dose: 22.5 mg/kg/injection, vehicle: methylcellulose (MC)
  T/C: 28 % of control
dose: 22.5 mg/kg/injection, vehicle: saline
  T/C: 47 % of control
dose: 45.0 mg/kg/injection, vehicle: methylcellulose (MC)
  T/C: 33 % of control
dose: 45.0 mg/kg/injection, vehicle: saline
  T/C: 38 % of control
dose: 90.0 mg/kg/injection, vehicle: methylcellulose (MC)
  T/C: 25 % of control

## CCCCCCCCCCCCNCCCCCCCCCCCC
dose: 2.5 mg/kg/injection, vehicle: other
  T/C: 41 % of control

## Cn1c(N)c(C(=O)CCl)c(=O)n(C)c1=O
dose: 30.0 mg/kg/injection, vehicle: carboxymethylcellulose (CMC)
  T/C: 66 % of control

## C=CC1OCCN1CC (configuration not stated)
dose: 12.5 mg/kg/injection, vehicle: other
  T/C: 106 % of control
dose: 50.0 mg/kg/injection, vehicle: other
  T/C: 87 % of control

## Cn1cnc(=S)c2[nH]cnc21
dose: 300.0 mg/kg/injection, vehicle: carboxymethylcellulose (CMC)
  T/C: 61 % of control

## CSc1nc(N)nc2c1ncn2Cc1ccccc1
dose: 75.0 mg/kg/injection, vehicle: methylcellulose (MC)
  T/C: 74 % of control
dose: 150.0 mg/kg/injection, vehicle: methylcellulose (MC)
  T/C: 53 % of control
dose: 300.0 mg/kg/injection, vehicle: methylcellulose (MC)
  T/C: 64 % of control

## CC(C)(COS(C)(=O)=O)C(=O)N1CCN(C(=O)C(C)(C)COS(C)(=O)=O)CC1
dose: 2.4 mg/kg/injection, vehicle: carboxymethylcellulose (CMC)
  T/C: 162 % of control
dose: 4.7 mg/kg/injection, vehicle: carboxymethylcellulose (CMC)
  T/C: 82 % of control
dose: 9.4 mg/kg/injection, vehicle: carboxymethylcellulose (CMC)
  T/C: 60 % of control
dose: 18.8 mg/kg/injection, vehicle: carboxymethylcellulose (CMC)
  T/C: 57 % of control

## COc1ccc(C(=O)OCC2OC(n3cnc4c(=S)nc(N)[nH]c43)C(OC(=O)c3ccc(OC)cc3)C2OC(=O)c2ccc(OC)cc2)cc1 (configuration not stated)
dose: 25.0 mg/kg/injection, vehicle: carboxymethylcellulose (CMC)
  T/C: 88 % of control
dose: 50.0 mg/kg/injection, vehicle: carboxymethylcellulose (CMC)
  T/C: 107 % of control
dose: 100.0 mg/kg/injection, vehicle: carboxymethylcellulose (CMC)
  T/C: 48 % of control
dose: 200.0 mg/kg/injection, vehicle: carboxymethylcellulose (CMC)
  T/C: 7 % of control

## CCc1nc(N)nc(N)c1-c1ccc(Cl)c(Cl)c1
dose: 0.5 mg/kg/injection, vehicle: methylcellulose (MC)
  T/C: 51 % of control
[1]
  T/C: 62 % of control and 71 % of control
dose: 2.0 mg/kg/injection, vehicle: methylcellulose (MC)
  T/C: 52 % of control

## CSc1ncc(Br)c(Sc2nc(N)nc3nc[nH]c23)n1
[1]
  T/C: 75 % of control
dose: 3.0 mg/kg/injection, vehicle: methylcellulose (MC)
  T/C: 87 % of control
dose: 6.0 mg/kg/injection, vehicle: methylcellulose (MC)
  T/C: 14 % of control
dose: 12.0 mg/kg/injection, vehicle: methylcellulose (MC)
  T/C: 3 % of control
dose: 15.0 mg/kg/injection, vehicle: carboxymethylcellulose (CMC)
  T/C: 10 % of control

## O=P(OCC1OC(n2cnc3c(=S)nc[nH]c32)C(O)C1O)(Oc1ccccc1)Oc1ccccc1 (configuration not stated)
dose: 4.0 mg/kg/injection, vehicle: methylcellulose (MC)
  T/C: 89 % of control
dose: 8.0 mg/kg/injection, vehicle: methylcellulose (MC)
  T/C: 88 % of control
dose: 16.0 mg/kg/injection, vehicle: methylcellulose (MC)
  T/C: 41 % of control
dose: 31.0 mg/kg/injection, vehicle: methylcellulose (MC)
  T/C: 39 % of control
dose: 62.0 mg/kg/injection, vehicle: methylcellulose (MC)
  T/C: 36 % of control
dose: 125.0 mg/kg/injection, vehicle: methylcellulose (MC)
  T/C: 34 % of control
